Data from patent US20210290765A1, “SURFACTANTS FOR HEALTHCARE PRODUCTS” (AdvanSix Resins & Chemicals LLC, priority 2020, published 2021).

What was measured:
Format in all cases: physicochemical
[1] = Dynamic surface tension, bubble pressure tensiometer
From the text: Another parameter used to assess the performance of surfactants is dynamic surface tension. The dynamic surface tension is the value of the surface tension for a particular surface or interface age. In the case of liquids with added surfactants, this can differ from the equilibrium value. Immediately after a surface is produced, the surface tension is equal to that of the pure liquid. As described above, surfactants reduce surface tension; therefore, the surface tension drops until an equilibrium value is reached. The time required for equilibrium to be reached depends on the diffusion rate and the adsorption rate of the surfactant.
One method by which dynamic surface tension is measured relies upon a bubble pressure tensiometer. This device measures the maximum internal pressure of a gas bubble that is formed in a liquid by means of a capillary. The measured value corresponds to the surface tension at a certain surface age, the time from the start of the bubble formation to the occurrence of the pressure maximum. The dependence of surface tension on surface age can be measured by varying the speed at which bubbles are produced.
(§1) Nuclear magnetic resonance (NMR) spectroscopy was performed on a Bruker 500 MHz spectrometer. The critical micelle concentration (CMC) was determined by the Wilhelmy plate method at 23° C. with a tensiometer (DCAT 11, DataPhysics Instruments GmbH) equipped with a Pt—Ir plate. Dynamic surface tension was determined with a bubble pressure tensiometer (Krüss BP100, Krüss GmbH), at 23° C. Contact angle was determined with the optical contact angle goniometer (OCA 15 Pro, DataPhysics GmbH) equipped with a digital camera.

[2] = Wetting properties: contact angle on solid substrates, optical contact angle goniometer; conditions: 10x CMC
From the text: Surface-active compounds may also be assessed by their wetting ability on solid substrates as measured by the contact angle. When a liquid droplet comes in contact with a solid surface in a third medium, such as air, a three-phase line forms among the liquid, the gas and the solid. The angle between the surface tension unit vector, acting at the three-phase line and tangent at the liquid droplet, and the surface is described as the contact angle. The contact angle (also known as wetting angle) is a measure of the wettability of a solid by a liquid. In the case of complete wetting, the liquid is completely spread over the solid and the contact angle is 0°. Wetting properties are typically measured for a given compound at the concentration of 1-100×CMC, however, it is not a property that is concentration-dependent therefore measurements of wetting properties can be measured at concentrations that are higher or lower.
In one method, an optical contact angle goniometer may be used to measure the contact angle. This device uses a digital camera and software to extract the contact angle by analyze the contour shape of a sessile droplet of liquid on a surface.
as §1

[3] = Critical micelle concentration (CMC) and surface tension versus concentration in water, Wilhelmy plate method; conditions: for plateau value of minimum surface tension that can be reached / surface tension at the CMC (from the plot) / critical micelle concentration (CMC): 23° C.; for plateau value of minimum surface tension that can be reached / surface tension at the CMC (from the plot): pH=7; for critical micelle concentration (CMC): pH=7, Wilhelmy plate
From the text: These properties may be measured and described by various methods. One method by which surfactants may be described is by the molecule's critical micelle concentration (CMC). CMC may be defined as the concentration of a surfactant at which micelles form, and above which all additional surfactant is incorporated into micelles.
As surfactant concentration increases, surface tension decreases. Once the surface is completely overlaid with surfactant molecules, micelles begin to form. This point represents the CMC, as well as the minimum surface tension. Further addition of surfactant will not further affect the surface tension. CMC may therefore be measured by observing the change in surface tension as a function of surfactant concentration. One such method for measuring this value is the Wilhemy plate method. A Wilhelmy plate is usually a thin iridium-platinum plate attached to a balance by a wire and placed perpendicularly to the air-liquid interface. The balance is used to measure the force exerted on the plate by wetting. This value is then used to calculate the surface tension (γ) according to Equation 1: […]
wherein I is equal to the wetted perimeter (2w+2d, in which w and d are the plate thickness and width, respectively) and cos θ, the contact angle between the liquid and the plate, is assumed to be 0 in the absence of an extant literature value.
as §1

[4] = surface age 1 ms, air-water interface, 23° C.
[5] = substrate Polyethylene terephthalate

Structure (SMILES) | dynamic surface tension [1, 4] | CA of Surfactant (contact angle) ([2]; substrate Nylon) [°] | CA of Surfactant (contact angle) [2, 5] [°] | CA of Surfactant (contact angle) ([2]; substrate Polyethylene-HD) [°] | CA of Surfactant (contact angle) ([2]; substrate Teflon) [°] | plateau value of minimum surface tension that can be reached [3] | surface tension at the CMC (from the plot) [3] | critical micelle concentration (CMC) [3] | time in which the compound fully saturated the surface ([1]; air-water interface, 23° C.) | further results
CCCCCCCCCCCCOC(=O)CCCCC[N+](C)(C)C.[I-] [Surfactant 1, 6-(dodecyloxy)-N,N,N-trimethyl-6-oxohexan-1-aminium iodide] | about 55.5 mN/m | 31.5 | 38.4 | 32 | 67.1 | about 33 mN/m | about 34 mN/m | about 1 mmol |  | dynamic surface tension ([1]; surface age 75 ms, air-water interface, 23° C.): about 39.9 mN/m; dynamic surface tension ([1]; surface age 50,410 ms, air-water interface, 23° C.): about 34 mN/m; surface tension ([3]; at a concentration of 1.0 mmol or greater): about 33.8 mN/m
CCCCCCCCCCCCOC(=O)CCCCC[N+](C)(C)[O-] [Surfactant 2, dodecyl 6-(dimethylamino)hexanoate N-oxide] |  | 21.7 | 24.5 | 39.3 | 57.4 | about 28 mN/m | ≤ 30 mN/m | about 0.08 mmol | approximately 7.6 seconds | dynamic surface tension ([1]; surface age of 4900 ms or greater): ≤ 40 mN/m; surface tension ([3]; at a concentration of 0.08 mmol or greater): ≤ 30 mN/m
CCCCCCCCCCCCOC(=O)CCCCCN(C)C.Cl [Surfactant 3, 6-(dodecyloxy)-N,N-dimethyl-6-oxohexan-1-aminium chloride] | about 50 mN/m | 15 | 18.3 | 42.5 | 66.6 | about 30 mN/m | ≤ 30 mN/m | about 1.4 mmol |  | dynamic surface tension ([1]; surface age 100 ms, air-water interface, 23° C.): about 40 mN/m; dynamic surface tension ([1]; surface age 50,000 ms, air-water interface, 23° C.): about 34 mN/m; surface tension ([3]; at a concentration of 2.7 mmol or greater): ≤ 33 mN/m
CCCCCCCCCCCCOC(=O)CCCCC[N+](C)(C)CCCCS(=O)(=O)[O-] [Surfactant 4, 4-((6-(dodecyloxy)-6-oxohexyl)dimethylammonio)butane-1-sulfonate] |  | 25.7 | 35.6 | 46.5 | 62.7 | about 38 mN/m | about 38 mN/m | about 0.1 mmol | approximately 1 seconds | dynamic surface tension ([1]; surface age of 4000 ms or greater): ≤ 40.5 mN/m; surface tension ([3]; at a concentration of 1 mmol or greater): ≤ 37 mN/m
CCCCCCCCCCCCOC(=O)CCCCCN.Cl [Surfactant 5, 6-(dodecyloxy)-6-oxohexan-1-aminium chloride] |  | 18.2 | 15.3 | 16.6 | 39.3 | about 23 mN/m | about 23 mN/m | about 0.75 mmol | approximately 1.5 seconds | dynamic surface tension ([1]; surface age of 3185 ms or greater): ≤ 28.5 mN/m; surface tension ([3]; at a concentration of 0.7 mmol or greater): ≤ 23.2 mN/m
